Target: T1, Sfh1 (Saccharomyces cerevisiae, UniProt P33324)
T1 sequence (P33324 1-310): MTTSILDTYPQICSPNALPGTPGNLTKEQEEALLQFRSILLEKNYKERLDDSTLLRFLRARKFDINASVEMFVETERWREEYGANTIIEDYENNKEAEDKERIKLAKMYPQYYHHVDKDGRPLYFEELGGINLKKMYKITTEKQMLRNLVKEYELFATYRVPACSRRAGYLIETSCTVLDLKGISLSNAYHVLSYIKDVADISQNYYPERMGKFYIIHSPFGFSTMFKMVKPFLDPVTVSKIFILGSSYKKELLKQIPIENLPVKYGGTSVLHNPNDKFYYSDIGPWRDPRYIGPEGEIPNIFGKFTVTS
Assay: CW X-band EPR, loading from multilamellar liposomes
Type: binding
Conditions: 130 μM protein, twofold molar excess of lipid, pH 6.8, 23°C; labelled compound

- % of total protein loaded: ~ 20%
Substance: 1-acyl-2-(n-(4,4-dimethyloxazolidine-N-oxyl)stearoyl)-sn-glycero-3-phosphocholines [16-doxyl-PtdCho]
